Test results: patent US5932551A, “Substituted N-carboxyalkylpeptidyl derivatives as antidegenerative active agents” (Merck & Co., Inc., priority 1997, dated 1999)

Tests used:
Type in all cases: biochemical
collagenase = target: T1, collagenase (Homo sapiens, UniProt P03956); test: Inhibition of collagenase cleavage of thioester peptide Ac-Pro-Leu-Gly-S-Leu-Leu-Gly-OC2H5; details: read-out: Inhibition of Collagenase pH = 6.5 (IC50)
T1 sequence (P03956 100-469): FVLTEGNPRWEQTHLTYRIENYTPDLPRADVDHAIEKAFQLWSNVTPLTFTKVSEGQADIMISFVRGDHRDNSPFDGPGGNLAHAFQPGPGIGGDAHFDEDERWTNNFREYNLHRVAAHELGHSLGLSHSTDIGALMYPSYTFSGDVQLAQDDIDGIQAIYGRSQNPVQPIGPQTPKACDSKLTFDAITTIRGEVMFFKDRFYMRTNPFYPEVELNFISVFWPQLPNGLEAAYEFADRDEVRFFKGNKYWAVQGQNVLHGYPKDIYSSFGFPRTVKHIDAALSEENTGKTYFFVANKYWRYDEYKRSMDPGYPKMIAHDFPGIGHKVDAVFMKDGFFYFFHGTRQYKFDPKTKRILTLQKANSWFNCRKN
Text: (§1) The peptide portion is herein designated SEQ ID No: 2:.

[1] = target: T2, 72 kD Galatinase (gelatinase) (Homo sapiens, UniProt P08253); test: Inhibition of gelatinase-mediated cleavage of fluorogenic substrate Dnp-Pro-Leu-Gly-Leu-Trp-Ala-D-ArgNH2; details: pH = 7.5
T2 sequence (P08253 110-660): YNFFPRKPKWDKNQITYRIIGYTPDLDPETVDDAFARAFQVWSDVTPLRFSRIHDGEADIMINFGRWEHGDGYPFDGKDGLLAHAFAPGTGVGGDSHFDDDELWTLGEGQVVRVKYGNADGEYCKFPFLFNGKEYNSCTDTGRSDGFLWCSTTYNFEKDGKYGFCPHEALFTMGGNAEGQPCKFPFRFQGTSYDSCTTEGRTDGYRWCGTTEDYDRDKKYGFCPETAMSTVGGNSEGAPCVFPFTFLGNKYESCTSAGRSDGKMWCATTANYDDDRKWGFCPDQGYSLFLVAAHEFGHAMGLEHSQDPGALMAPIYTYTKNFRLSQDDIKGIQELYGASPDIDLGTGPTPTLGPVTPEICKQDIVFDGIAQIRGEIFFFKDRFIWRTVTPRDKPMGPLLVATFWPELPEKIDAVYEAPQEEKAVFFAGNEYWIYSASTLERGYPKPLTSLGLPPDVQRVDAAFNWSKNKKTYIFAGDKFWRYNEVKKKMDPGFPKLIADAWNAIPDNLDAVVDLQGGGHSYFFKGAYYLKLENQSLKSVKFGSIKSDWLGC
Text: as §1

stromelysin = stromelysin (Homo sapiens, UniProt P08254); test: Inhibition of stromelysin-mediated hydrolysis of substance P (HPLC-based assay); details: pH = 7.5
stromelysin, sequence (P08254 100-477): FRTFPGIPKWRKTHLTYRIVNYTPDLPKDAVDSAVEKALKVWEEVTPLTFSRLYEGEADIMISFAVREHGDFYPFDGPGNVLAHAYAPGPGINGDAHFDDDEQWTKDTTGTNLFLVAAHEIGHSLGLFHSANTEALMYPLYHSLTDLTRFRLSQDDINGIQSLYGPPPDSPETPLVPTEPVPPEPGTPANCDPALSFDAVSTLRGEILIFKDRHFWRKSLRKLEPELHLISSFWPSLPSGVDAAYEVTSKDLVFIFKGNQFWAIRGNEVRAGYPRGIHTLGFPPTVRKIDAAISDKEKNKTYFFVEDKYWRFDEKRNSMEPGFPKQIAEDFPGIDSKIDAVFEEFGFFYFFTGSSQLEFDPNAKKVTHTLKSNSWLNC

IC50 (collagenase)	Ki [1]	IC50 (stromelysin)	SMILES
0.06 µM	0.93 µM	–	CC(C)C[C@H](NC(=O)[C@H](CCc1ccccc1)N[C@H](C)C(=O)O)C(=O)Nc1ccccc1 [5a, N-[1(R)-Carboxy-ethyl]-α-(S)-(2-phenyl-ethyl)glycine-(L)-leucine, N-phenylamide]
0.25 µM	0.086 µM	0.2 µM	CC(C)C[C@H](NC(=O)[C@H](CCc1ccccc1)N[C@H](CCCCN1C(=O)c2ccccc2C1=O)C(=O)O)C(=O)Nc1ccccc1 [5d]
